# Target: T1, human recombinant OX2 (hOX2) receptor expressed in CHO cells (Homo sapiens, UniProt O43614)
# T1 construct: host or cells: CHO cells (hOX2-CHO)
# T1 sequence (O43614 1-444): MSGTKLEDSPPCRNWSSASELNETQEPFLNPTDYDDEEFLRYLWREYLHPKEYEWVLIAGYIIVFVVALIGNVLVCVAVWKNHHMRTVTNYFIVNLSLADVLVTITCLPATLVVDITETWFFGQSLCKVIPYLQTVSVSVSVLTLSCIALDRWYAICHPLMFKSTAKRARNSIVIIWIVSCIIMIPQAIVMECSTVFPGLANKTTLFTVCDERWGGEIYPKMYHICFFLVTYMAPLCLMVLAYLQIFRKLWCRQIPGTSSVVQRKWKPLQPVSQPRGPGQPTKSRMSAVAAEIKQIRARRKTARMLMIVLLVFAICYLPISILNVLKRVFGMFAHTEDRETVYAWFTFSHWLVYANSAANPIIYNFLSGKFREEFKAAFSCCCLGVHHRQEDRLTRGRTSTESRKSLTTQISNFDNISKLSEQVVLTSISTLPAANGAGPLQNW
# Assay: IP-1 accumulation assay (IP-One HTRF) in hOX2-CHO cells
# Format: cell-based
# Conditions: 60 min at 37° C., 11 points CRC, response as % of maximal OX-A response
# Description: The accumulation of Inositol-1 Monophosphate (IP-1) was measured using IP-One HTRF® Terbium cryptate based assay (Cisbio) in human recombinant OX1 (hOX1) and at OX2 (hOX2) receptors expressed in CHO cells (DiscoverX) according to the manufacturer's instructions for cells tested in suspension.
# hOX1-CHO and hOX2-CHO cells were seeded into white 384-well plates at a density of 20,000 cells/well in Hank's Balanced Salt Solution (HBSS) containing 20 mM HEPES pH 7.4, 50 mM, LiCl and 0.1% and Bovine Serum Albumin (BSA).
# Compounds of the present disclosure were tested in a 11 points concentration response curve (CRC) serially diluted in neat DMSO at 200 fold concentrations and added by Echo acoustic liquid handling (Labcyte) to the cells (0.5% DMSO final in the assay). After 60 min of incubation at 37° C. detection reagents, IP1-d2 tracer and anti-IP1-cryptate were diluted in lysis buffer according to the manufacturer's descriptions and added to the cells.
# Following 60 min incubation at room temperature, time-resolved fluorescence (HTRF) was measured at 615 nm and 665 nm by Envision Multilabel reader (Perkin Elmer) and the HTRF ratio (A665/A615x104) was calculated.
# The IP-1 accumulation response was expressed as percentage of the maximal OX-A response.
# Curve fitting and EC50 estimations were carried out using a four-parameter logistic model using XLfit Software. Mean data of EC50 are calculated from at least two independent experiments performed in duplicates.
# In the Tables, below Category A corresponds to compounds displaying an […]<100 nM, Category B between 100 nM and 1,000 nM, Category C between 1,000 nM and 10,000 nM and Category D above 10,000 nM.
row,EC50 [µM],Compound
1,1 to 10,"CN(C)S(=O)(=O)NCC(CO[C@H]1CC[C@@H](c2ccccc2)CC1)n1ccccc1=O (relative stereo) [Example 1f, 1-{1-[(Dimethylsulfamoyl)amino]-3-{[(CIS)-4-phenylcyclohexyl]oxy}propan-2-yl}-1,2-dihydropyridin-2-one]"
2,< 0.1,"Cc1cc(C(CNS(=O)(=O)CF)CO[C@H]2CC[C@@H](c3cc(F)cc(F)c3)CC2)c(=O)n(C)c1 (relative stereo) [Example 5t, N-[2-(1,5-dimethyl-2-oxo-1,2-dihydropyridin-3-yl)-3-{[(CIS)-4-(3,5-difluorophenyl)cyclohexyl]oxy}propyl]-1-fluoromethanesulfonamide]"
3,1 to 10,"CS(=O)(=O)NCC(CO[C@H]1CC[C@@H](c2ccccc2)CC1)n1ccccc1=O (single isomer, unassigned; isomer 1) [Example 1a, (R or S) N-[2-(2-oxo-1,2-dihydropyridin-1-yl)-3-{[(CIS)-4-phenylcyclo-hexyl]oxy}propyl] methane-sulfonamide- Isomer 1]"
4,> 10,"Cc1cccn(C(CNS(C)(=O)=O)CO[C@H]2CC[C@@H](c3ccccc3)CC2)c1=O (single isomer, unassigned; isomer 1) [Example 1d, (R or S) N-[2-(3-methyl-2-oxo-1,2-dihydropyridin-1-yl)-3-{[(CIS)-4-phenylcyclo-hexyl]oxy}propyl] methane-sulfonamide- Isomer 1]"
5,> 10,"CCc1cccn(C(CNS(C)(=O)=O)CO[C@H]2CC[C@@H](c3ccccc3)CC2)c1=O (single isomer, unassigned; isomer 1) [Example 2a, (R or S) N-[2-(3-ethyl-2-oxo-1,2-dihydropyridin-1-yl)-3-{[(CIS)-4-phenylcyclohexyl]oxy}propyl]methanesulfonamide-Isomer 1]"
6,> 10,"Cc1ccn(C(CNS(C)(=O)=O)CO[C@H]2CC[C@@H](c3ccccc3)CC2)n1 (single isomer, unassigned; isomer 1) [Example 2ab, (R or S) N-[2-(3-methyl-1H-pyrazol-1-yl)-3-{[(CIS)-4-phenylcyclohexyl]oxy}propyl]methanesulfonamide-Isomer 1]"
7,> 10,"Cc1ccnn1C(CNS(C)(=O)=O)CO[C@H]1CC[C@@H](c2ccccc2)CC1 (single isomer, unassigned; isomer 1) [Example 2ad, (R or S) N-[2-(5-methyl-1H-pyrazol-1-yl)-3-{[(CIS)-4-phenylcyclohexyl]oxy}propyl]methanesulfonamide-Isomer 1]"
8,< 0.1,"Cc1cc(C)c(=O)n(C(CNS(C)(=O)=O)CO[C@H]2CC[C@@H](c3cccc(F)c3)CC2)c1 (single isomer, unassigned; isomer 1) [Example 2af, (R or S) N-[2-(3,5-dimethyl-2-oxo-1,2-dihydropyridin-1-yl)-3-{[(CIS)-4-(3-fluorophenyl)cyclohexyl]oxy}propyl]methanesulfonamide-Isomer 1]"
9,< 0.1,"Cc1cc(Cl)cn(C(CNS(C)(=O)=O)CO[C@H]2CC[C@@H](c3cccc(F)c3)CC2)c1=O (single isomer, unassigned; isomer 1) [Example 2ah, (R or S) N-[2-(5-chloro-3-methyl-2-oxo-1,2-dihydropyridin-1-yl)-3-{[(CIS)-4-(3-fluorophenyl)cyclohexyl]oxy}propyl]methanesulfonamide-Isomer 1]"
10,< 0.1,"Cc1cc(C)c(=O)n(C(CNS(=O)(=O)N(C)C)CO[C@H]2CC[C@@H](c3cccc(F)c3)CC2)c1 (single isomer, unassigned; isomer 1) [Example 2ar, (R or S) 1-[1-[(dimethylsulfamoyl)amino]-3-{[(CIS)-4-(3-fluorophenyl)cyclohexyl]oxy}propan-2-yl]-3,5-dimethyl-1,2-dihydropyridin-2-one-Isomer 1]"
11,< 0.1,"Cc1cc(C)c(=O)n(C(CNS(=O)(=O)CF)CO[C@H]2CC[C@@H](c3cccc(F)c3)CC2)c1 (single isomer, unassigned; isomer 1) [Example 2au, (R or S) N-[2-(3,5-dimethyl-2-oxo-1,2-dihydropyridin-1-yl)-3-{[(CIS)-4-(3-fluorophenyl)cyclohexyl]oxy}propyl]-1-fluoromethanesulfonamide-Isomer 1]"
12,1 to 10,"Cc1cc(C)c(=O)n(C(CNS(C)(=O)=O)COC2CCN(c3ncc(F)cn3)CC2)c1 (single isomer, unassigned; isomer 1) [Example 2az, (R or S) N-[2-(3,5-dimethyl-2-oxo-1,2-dihydropyridin-1-yl)-3-{[1-(5-fluoropyrimidin-2-yl)piperidin-4-yl]oxy}propyl]methanesulfonamide-Isomer 1]"
13,1 to 10,"CS(=O)(=O)NCC(CO[C@H]1CC[C@@H](c2ccccc2)CC1)n1cccc(F)c1=O (single isomer, unassigned; isomer 1) [Example 2g, (R or S) N-[2-(3-fluoro-2-oxo-1,2-dihydropyridin-1-yl)-3-{[(CIS)-4-phenylcyclohexyl]oxy}propyl]methanesulfonamide-Isomer 1]"
14,0.1 to 1,"Cc1ccc(=O)n(C(CNS(C)(=O)=O)CO[C@H]2CC[C@@H](c3ccccc3)CC2)c1 (single isomer, unassigned; isomer 1) [Example 2j, (R or S) N-[2-(5-methyl-2-oxo-1,2-dihydropyridin-1-yl)-3-{[(CIS)-4-phenylcyclohexyl]oxy}propyl]methanesulfonamide-Isomer 1]"
15,0.1 to 1,"Cc1ccn(C(CNS(C)(=O)=O)CO[C@H]2CC[C@@H](c3ccccc3)CC2)c(=O)c1C (single isomer, unassigned; isomer 1) [Example 2n, (R or S) N-[2-(3,4-dimethyl-2-oxo-1,2-dihydropyridin-1-yl)-3-{[(CIS)-4-phenylcyclohexyl]oxy}propyl]methanesulfonamide-Isomer 1]"
16,< 0.1,"Cc1cc(C)c(=O)n(C(CNS(C)(=O)=O)CO[C@H]2CC[C@@H](c3ccccc3)CC2)c1 (single isomer, unassigned; isomer 1) [Example 2t, (R or S) N-[2-(3,5-dimethyl-2-oxo-1,2-dihydropyridin-1-yl)-3-{[(CIS)-4-phenylcyclohexyl]oxy}propyl]methanesulfonamide-Isomer 1]"
17,1 to 10,"Cc1cccn(C(CO[C@H]2CC[C@@H](c3ccccc3)CC2)C(C)NS(C)(=O)=O)c1=O (single isomer, unassigned; isomer 1) [Example 3a, (2R or 2S) and (3R or 3S) N-[3-(3-methyl-2-oxo-1,2-dihydropyridin-1-yl)-4-{[(CIS)-4-phenylcyclohexyl]oxy}butan-2-yl]methanesulfonamide—Isomer 1]"
18,1 to 10,"Cn1cccc(C(CNS(C)(=O)=O)CO[C@H]2CC[C@@H](c3ccccc3)CC2)c1=O (single isomer, unassigned; isomer 1) [Example 4a, (R or S) N-[2-(1-methyl-2-oxo-1,2-dihydropyridin-3-yl)-3-{[(CIS)-4-phenylcyclohexyl]oxy}propyl]methanesulfonamide—Isomer 1]"
19,< 0.1,"Cc1cc(C(CNS(=O)(=O)N(C)C)CO[C@H]2CC[C@@H](c3cccc(F)c3)CC2)c(=O)n(C(F)F)c1 (single isomer, unassigned; isomer 1) [Example 5ab, (R or S) 1-(difluoromethyl)-3-[1-[(dimethylsulfamoyl)amino]-3-{[(CIS)-4-(3-fluorophenyl)cyclohexyl]oxy}propan-2-yl]-5-methyl-1,2-dihydropyridin-2-one—Isomer 1]"

# — US20240360081A1, “SULFONAMIDE OREXIN RECEPTOR AGONISTS AND USES THEREOF” (Jazz Pharmaceuticals Ireland Limited, priority 2021, published 2024)
